This is an account of results in publication PMC12560828, “Chemical structure drives developmental toxicity of alkyl-substituted naphthalenes in zebrafish” (Environment international, 2025).

Data set [1] has as its system zebrafish larvae, 120 hpf. The experiment in a line: Larval photomotor response (LPR) assay after vial exposure. Format: in vivo, Danio rerio. The settings on record: LPR. An outline of the steps:
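Embryos bleached at 6 hpf, exposed in sealed glass vials (8 per vial, DMSO stock at 200x) with rotation overnight at 28 °C, then singulated into chemical-free medium and kept dark at 28 °C. Movement tracked minutes 6–24 at 120 hpf, 6 s bins log-normalized to AUC; LEL per light/dark period from first cycle; nominal water concentrations, dead/malformed larvae excluded.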

The subject of data set [2] is early life stage zebrafish (Danio rerio) embryos. The experiment in a line: Developmental toxicity morphology screen, sealed rotating vial exposure. Format: in vivo. The arrangement: bmd, MO24 / bmd, MORT / bmd, ANY_ / bmd, AXIS / bmd, CRAN / bmd, EDEM / bmd, LTRK / bmd, MUSC / bmdL, ANY_ / bmdU, ANY_ / bmdL, AXIS / bmdU, AXIS / bmdL, CRAN / bmdU, CRAN / bmdL, EDEM / bmdU, EDEM / bmdL, LTRK / bmdU, LTRK / bmdL, MO24 / bmdU, MO24 / bmdL, MORT / bmdU, MORT: unit not given here. The note with it: for morphological effects (BMC50 for any morphological endpoint): 0-50 μM, result in words. Put shortly:
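Bleached 6 hpf embryos, eight per sealed glass vial in 2 mL EM, were dosed from a 200x DMSO stock and rotated end-over-end overnight at 28 °C, then moved to chemical-free EM at 24 hpf (32 embryos per treatment). Blinded binary scoring at 120 hpf was pooled as "Any effect". BMC50 is on nominal concentrations.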

The next data set relates to lung tissue. The note with it: compared to naphthalene and monomethylated derivatives, ref Honda et al., 1990, cited from earlier work.
The subject of data set [3] is early life stage zebrafish. Also noted: method as in Geier et al., 2018a. The settings on record: 96-well plate format; ref Geier et al., 2018a; cited from earlier work.
Data set [4] relates to zebrafish embryos. The note with it: 96-well, cited from earlier work.
Data set [5] has as its system zebrafish embryos. The experiment in a line: Body burden measurement (GC-MS/MS) and concentration uptake ratio, vial exposure. The note with it: for measured concentration in embryo extract: 20 μM exposure, 32 pooled embryos, 0.5 mL extract, single replicates; for nmol/embryo per nmol available / nmol/embryo: Current study, vial, 20 μM; for nmol/embryo: single chemical. Format: in vivo, Danio rerio. The method, then:
(§1) Body burden was measured for exposure to five chemicals at two timepoints: 24 and 48 hpf. […] The exposure concentration was chosen as it was the maximum possible concentration that ensured enough viable animals for collection at 48 hpf and allowed direct comparison of chemical uptake at the same exposure concentration.
(§2) Chemicals were exposed at 20 μM following the exposure procedure detailed in section 1.3, 24 vials per chemical. At 24 hpf, embryos were pooled in groups of 32 embryos (combining embryos from 4 vials) into 1.5 mL polypropylene RINO-safe lock tubes (n = 3 per chemical treatment, n = 3 per control). Tubes were briefly placed on ice to reduce embryo movement (<1 min); the remaining medium was removed; the tube was then flash frozen in liquid nitrogen and stored at −20 °C until extraction. Embryos in the remaining vials were plated as previously described in section 1.3 until collection at 48 hpf following the same procedure as 24 hpf collections (n = 3 per chemical treatment, n = 1 control).
(§3) Tissue extraction was performed as previously reported ([Rude et al., 2025]). Each sample was spiked with 25 μL internal standard in ethyl acetate and 100 μL of 1 mm glass beads (Next Advance, Troy, NY United States) were added to the RINO-safe lock tubes containing thawed tissue samples and left on ice for 10 min 250 mg of Na2SO4 and 200 μL of ethyl acetate were added to each tube and vortexed. Tubes were homogenized at speed 8 for 6 min in a Bullet Blender (Next Advance, Troy, NY, United States). 300 μL of ethyl acetate was added to each tube and the homogenization step was repeated until no pieces of non-homogenized fish tissue remained. Samples were then centrifuged for 10 min at 4 °C, 1600g. Sample supernatant (0.5 mL) was collected into amber vials and stored at 4 °C until chemical analysis.
(§4) Samples were analyzed for quantitation and identification of 161 PAHs. The method was performed with an Agilent 7890 gas chromatograph (GC), with a 7000C triple quadrupole mass spectrometer (MS/MS) using an Agilent J&W PAH select (30 m × 250 μm × 0.15 μm GC column). Calibration for each analyte utilized at least a 4-point (range: 4–7, median 6 points, n = 161) curve with R^2 ≥ 0.99. Specific instrument conditions were modified from [Anderson et al. (2015)] and are detailed in Table S3. GC–MS/MS data was analyzed using MassHunter Quantitative Analysis v.B.06.00 SP1 build 6.0.388.1 software (Agilent Corp. Wilmington,DE) ([Anderson et al., 2015]). Dynamic muti-reaction monitoring mode was used during analyses, and all PAHs were identified using analytical standards obtained from multiple sources (Table S1). Collison energies were optimized for each individual unsubstituted PAH, alkylation series (C1, C2, etc.), and when possible, specific alkylation group (i.e. methyl, ethyl, etc.).
(§5) Body burden concentrations based on average embryo wet weight at each timepoint were determined by the equation below. Total measured chemical was calculated from ng/mL concentrations times sample volume (0.5 mL). Bodyburdennmol/mgbw=total measured chemicalnmol/number of fish32×average body weightmg
(§6) Average body weights at 24 hpf and 48 hpf were assumed to be 0.31 mg and 0.26 mg, respectively as determined previously ([Rericha et al., 2024]). Statistical analysis to compare time points within chemicals was performed using a two-sided Student’s t-test (p-value ≤ 0.05). An ANOVA with a follow-up Dunn’s test was used to compare body burden between chemicals at 24 hpf (p-value ≤ 0.05). Body burden concentrations at 24 hpf were compared to the estimated percent effect of each measured chemical at the exposure concentration used for body burden analysis (20 μM). These estimates were made using the fitted concentration-response curves previously described in section 2.3.2.2.
(§7) Concentration uptake ratios between vial exposures and 96-well plate exposures were compared using a two-sided Student’s t-test, p-values ≤ 0.05 were considered significant. […]

Assay in data set [6]: as above
Format: in vivo, Danio rerio. The note with it: zebrafish (Danio rerio), whole embryos (32 pooled, ethyl acetate extract), other: waterborne exposure of embryos in sealed vials, 20 μM exposure, 32 pooled embryos, 0.5 mL extract, single replicates, read-out: measured concentration in embryo extract. The method, then:
as §1, §2, §3, §4, §5, §6, §7

Where [7] appears, read: period dark, round 1, conc 3.125.
Setting [8] is: period dark, round 1, conc 6.25.
The mark [9] stands for this setting: period dark, round 1, conc 12.5.
Setting [10] is: period light, round 1, conc 3.125.
Setting [11] is: period light, round 1, conc 6.25.
The mark [12] stands for this setting: period light, round 1, conc 12.5.
Where [13] appears, read: 24 hpf, 2.6 μM, mixture, ref Rude et al 2025.
Where [14] appears, read: 48 hpf, 2.6 μM, mixture, ref Rude et al 2025.

Values joined by “and” are separate entries in the source; they are usually repeats but may differ in a detail not shown here. Equal values may be shown once. Read-outs that look alike come from different tables or passages of the source.

Regarding `CC(C)c1ccc2cc(C(C)C)ccc2c1` [2,6-diisopropylnaphthalene], the fold_change was -0.1214 in data set [1] (setting [7]); 0.07359 in data set [1] (setting [8]); -0.001373 in data set [1] (setting [9]); -0.09025 in data set [1] (period dark, round 1, conc 25); -0.07941 in data set [1] (period dark, round 1, conc 50); -0.5097 in data set [1] (setting [10]). Also, the fold_change in data set [1] (setting [11]) was -1.08; in data set [1] (setting [12]), -0.05494; in data set [1] (period light, round 1, conc 25), -0.2588; in data set [1] (period light, round 1, conc 50) it was -0.8125. The “morphological effects (BMC50 for any morphological endpoint)” value in data set [2] is “lack of activity”. Further, the “toxicity / lung tissue damage in mice” value in the data set with lung tissue was “minimal damage to lung tissue”; in the data set on lung tissue (listed as 2,6-diidopropylnaphthalene), “minimally active”.
With `Cc1ccc2cc(C)ccc2c1` [2,6-dimethylnaphthalene], the LPR effects result in data set [3] is “all but 2,6-dimethylnaphthalene caused LPR effects”. Further, the fold_change in data set [1] (setting [7]) is reported as -0.2769; in data set [1] (setting [8]), -0.4387; in data set [1] (setting [9]) it was -0.1031; in data set [1] (period dark, round 1, conc 25) it was -0.6771; in data set [1] (period dark, round 1, conc 50) it was -0.3061; in data set [1] (setting [10]), -0.2359. For the same compound, the fold_change is -0.1972 in data set [1] (setting [11]); 0.2009 in data set [1] (setting [12]); -0.2222 in data set [1] (period light, round 1, conc 25); -0.2493 in data set [1] (period light, round 1, conc 50).
In the case of `CC(C)c1ccc2ccccc2c1` [2-isopropylnaphthalene], the fold_change in data set [1] (setting [7]) is reported as -0.04413; in data set [1] (setting [8]) it was -0.6849; in data set [1] (setting [9]), -1.554; in data set [1] (period dark, round 2, conc 12.8), -0.9379; in data set [1] (period dark, round 2, conc 16), -1.368; in data set [1] (period dark, round 2, conc 20) it was -1.899. The fold_change is 0.2872 in data set [1] (setting [10]); 0.3099 in data set [1] (setting [11]); 1.277 in data set [1] (setting [12]); -0.1327 in data set [1] (period light, round 2, conc 12.8); -0.2493 in data set [1] (period light, round 2, conc 16); 0.1913 in data set [1] (period light, round 2, conc 20). Also, the “BMC50 MO24 (mortality at 24 hpf)” value in data set [2] (Fig. 2, nominal concentration) stood at 29.9 µM. The “BMC50 MORT (mortality at 120 hpf)” value in data set [2] (Fig. 2, nominal concentration) came out at 25.2 µM. Further, the “BMC50 Any effect” value in data set [2] (Fig. 2 heatmap, nominal concentration, exposure 6-24 hpf in vials, summary of all endpoints) is 19.8 µM. The “any effect BMD50” value in data set [2] (SI-T5) was determined as 19.85 µM. For the same compound, the “bmd, MO24” value in data set [2] (endpoint MO24, benchmark dose) came to 29.9264. Also, the “bmdL, MO24” value in data set [2] (endpoint MO24, lower limit of benchmark dose) is 27.6751. The “bmdU, MO24” value in data set [2] (endpoint MO24, upper limit of benchmark dose) was 32.9501. Further, the “bmd, MORT” value in data set [2] (endpoint MORT, benchmark dose) is recorded as 25.1507. The “bmdL, MORT” value in data set [2] (endpoint MORT, lower limit of benchmark dose) stood at 24.3232. The “bmdU, MORT” value in data set [2] (endpoint MORT, upper limit of benchmark dose) was determined as 26.3204. Further, the “bmd, ANY_” value in data set [2] (morphology endpoint ANY_, benchmark dose) was 19.8483. Further, the “bmdL, ANY_” value in data set [2] (morphology endpoint ANY_, lower limit of benchmark dose) is reported as 18.4734. Moreover, in data set [2] (morphology endpoint ANY_, upper limit of benchmark dose), the “bmdU, ANY_” value was 21.3892. The “toxicity / lung tissue damage in mice” value in the data set on lung tissue was “minimally active”.
With `c1ccc2ccccc2c1` [naphthalene], in the data set with zebrafish embryos [4] (setting [13]), the “mean nmol/embryo per nmol available” value is recorded as 0.004595. Further, the nmol/embryo with zebrafish embryos [4] (setting [13]) was 0.001159 nmol/embryo and 0.001224 nmol/embryo and 0.001235 nmol/embryo; in the data set with zebrafish embryos [4] (setting [14]) it was 0.0007856 nmol/embryo and 0.00092 nmol/embryo and 0.0008366 nmol/embryo and 0.0008192 nmol/embryo; in the data set with zebrafish embryos [4] (48 hpf, 5.39 μM, single chemical, ref Geier et al 2018), 0.0007734 nmol/embryo and 0.0007422 nmol/embryo and 0.000789 nmol/embryo; in the data set on zebrafish embryos [4] (48 hpf, 11.6 μM, single chemical, ref Geier et al 2018), 0.001794 nmol/embryo and 0.001746 nmol/embryo and 0.001648 nmol/embryo; with zebrafish embryos [4] (48 hpf, 25 μM, single chemical, ref Geier et al 2018) it was 0.002233 nmol/embryo and 0.002584 nmol/embryo and 0.002516 nmol/embryo; with zebrafish embryos [5] (24 hpf) it was 0.7924 nmol/embryo and 0.5364 nmol/embryo and 0.6254 nmol/embryo. The nmol/embryo in the data set on zebrafish embryos [5] (48 hpf) was 0.009216 nmol/embryo and 0.008156 nmol/embryo and 0.007558 nmol/embryo. The “nmol/embryo per nmol available” value is 0.00446 and 0.00471 and 0.004751 in the data set on zebrafish embryos [4] (setting [13]); 0.003022 and 0.003538 and 0.003218 and 0.003151 with zebrafish embryos [4] (setting [14]); 0.001435 and 0.001377 and 0.001464 in the data set with zebrafish embryos [4] (48 hpf, 5.39 μM, ref Geier et al 2018); 0.001547 and 0.001505 and 0.001421 in the data set with zebrafish embryos [4] (48 hpf, 11.6 μM, ref Geier et al 2018); 0.0008933 and 0.001034 and 0.001006 in the data set on zebrafish embryos [4] (48 hpf, 25 μM, ref Geier et al 2018); 0.1585 and 0.1073 and 0.1251 in the data set with zebrafish embryos [5] (24 hpf). Besides, in the data set with zebrafish embryos [5] (48 hpf), the “nmol/embryo per nmol available” value is 0.001843 and 0.001631 and 0.001512. For the same compound, the “measured concentration in embryo extract” value was 4400 ng/mL and 5130 ng/mL in the data set with zebrafish embryos [5] (24 hpf); 66.9 ng/mL and 62 ng/mL in the data set on zebrafish embryos [5] (48 hpf). Moreover, the concentration at 24 hpf, 20 μM in data set [6] (24 hpf) was 6500 ng/mL. The concentration at 48 hpf, 20 μM in data set [6] (48 hpf) was found to be 75.6 ng/mL. The “morphological effects (BMC50 for any morphological endpoint)” value in data set [2] was “no morphological BMC50 values”.
